Experimental data as given in patent publication US20120052122A1, “Treatment Of Chronic Obstructive Pulmonary Disease With Phosphodiesterase-4 Inhibitor” (Nycomed GmbH, priority 2010, published 2012).

Tests used:
[1] = human, in vivo
[2] = tested on: CYP 1A2, 2A6, 2B6, 2C8, 2C9, 2C19, 2D6, 2E1, 3A4/5, or 4A9/11; experiment: CYP inhibition in human liver microsomes; details: therapeutic plasma concentrations

Absorption or pharmacokinetics on co-administration with an antacid [1]: did not alter
Inhibition of CYP 1A2, 2A6, 2B6, 2C8, 2C9, 2C19, 2D6, 2E1, 3A4/5, or 4A9/11 [2]: do not inhibit
Linearity of pharmacokinetics (Human pharmacokinetics; 250 mcg to 1,000 mcg): dose-proportional
Time of maximum plasma concentrations after dosing (Human pharmacokinetics; fasted state): about eight
Cmax (Human pharmacokinetics; in vivo): 8.5 ng/mL
Plasma AUC (Human pharmacokinetics; in vivo): 315 ugxh/L
Time to steady state plasma concentrations (Human pharmacokinetics; once daily dosing): ~6 days
Median plasma effective half-life (Human pharmacokinetics; oral dose): ~30 h
Compound: O=C(Nc1c(Cl)c[n+]([O-])cc1Cl)c1ccc(OC(F)F)c(OCC2CC2)c1 [roflumilast N-oxide]
